# According to BindingDB's records for doi:10.1021/jm050513m (The University of Texas At Houston, 2005):
# Where “and” joins values, the source holds several entries; their conditions need not be identical. Equal entries are not always repeated. Numbered stars: 1 amine (or outer) side, 2 acyl side, 3 side chain; on linkers, the order of the positions; unused ones are H or OH. Square brackets hold non-standard residues; d marks the D form. Peptide text beside a SMILES is read from it. * marks the point of attachment. ξ: configuration not given here. pY = N[C@@H](Cc1ccc(OP(=O)(O)O)cc1)C(=O)O; X2 = O=C([C@H]1CCCN([*:1])C1)[*:2]; Hyp = O=C(O)[C@@H]1C[C@@H](O)CN1; Thr(3ξ) = CC(O)[C@H](N)C(=O)O; Piperidide = C1CCN(*)CC1; Pyrrolidide = C1CCN(*)C1; Cbz = O=C(OCc1ccccc1)*
# Target: Signal transducer and activator of transcription 3 (Mus musculus, UniProt P42227)
# Sequence (P42227 whole entry): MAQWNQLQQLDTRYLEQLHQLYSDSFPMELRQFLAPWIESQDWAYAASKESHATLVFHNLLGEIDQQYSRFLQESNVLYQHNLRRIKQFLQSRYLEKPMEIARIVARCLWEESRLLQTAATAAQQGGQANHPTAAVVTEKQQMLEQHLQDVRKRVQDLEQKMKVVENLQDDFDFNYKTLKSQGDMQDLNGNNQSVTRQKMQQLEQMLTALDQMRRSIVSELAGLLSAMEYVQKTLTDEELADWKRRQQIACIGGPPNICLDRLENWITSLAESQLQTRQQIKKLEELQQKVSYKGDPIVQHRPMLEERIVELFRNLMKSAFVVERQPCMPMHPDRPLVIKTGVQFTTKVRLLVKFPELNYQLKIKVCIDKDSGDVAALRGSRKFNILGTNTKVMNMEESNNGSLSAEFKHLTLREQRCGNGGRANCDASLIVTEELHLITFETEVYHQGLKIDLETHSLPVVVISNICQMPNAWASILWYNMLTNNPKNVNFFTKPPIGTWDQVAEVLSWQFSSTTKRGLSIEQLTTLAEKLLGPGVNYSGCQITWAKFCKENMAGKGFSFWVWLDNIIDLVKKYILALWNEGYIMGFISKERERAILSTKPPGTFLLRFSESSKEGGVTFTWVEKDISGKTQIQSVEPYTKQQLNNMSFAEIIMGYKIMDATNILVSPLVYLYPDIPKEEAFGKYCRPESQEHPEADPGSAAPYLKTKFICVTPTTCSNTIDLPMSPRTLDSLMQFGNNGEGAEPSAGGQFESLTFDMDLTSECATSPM
# Experiment: Fluorescence Polarization Assay
IC50 [nM],Structure (SMILES),"IC50 (pH 7.5, 22 °C)"
7000,CC(=O)N[C@@H](Cc1ccc(OP(=O)(O)O)cc1)C(=O)N[C@@H](CC(C)C)C(=O)N1CCC[C@H]1C(=O)N[C@@H](CCC(N)=O)C(=O)N1CCCCC1 [4-[(2S)-2-{[(2S)-1-[(2S)-2-{[(2S)-4-carbamoyl-1-oxo-1-(piperidin-1-yl)butan-2-yl]carbamoyl}pyrrolidin-1-yl]-4-methyl-1-oxopentan-2-yl]carbamoyl}-2-acetamidoethyl]phenoxyphosphonic acid] (Ac-[pY]LPQ-Piperidide),–
2110,CC(=O)N[C@@H](Cc1ccc(OP(=O)(O)O)cc1)C(=O)N[C@@H](CC(C)C)C(=O)N1CCC[C@H]1C(=O)N[C@@H](CCC(N)=O)C(=O)N1CCCC1 [4-[(2S)-2-{[(2S)-1-[(2S)-2-{[(2S)-4-carbamoyl-1-oxo-1-(pyrrolidin-1-yl)butan-2-yl]carbamoyl}pyrrolidin-1-yl]-4-methyl-1-oxopentan-2-yl]carbamoyl}-2-acetamidoethyl]phenoxyphosphonic acid] (Ac-[pY]LPQ-Pyrrolidide),–
–,"CC(=O)N[C@@H](Cc1ccc(OP(=O)(O)O)cc1)C(=O)N[C@@H](CC(C)C)C(=O)N1C[C@H](O)C[C@H]1C(=O)N[C@@H](CCC(N)=O)C(=O)N[C@H](C(N)=O)C(C)O (stereo partly drawn) [4-[(2S)-2-{[(2S)-1-[(2S,4R)-2-{[(1S)-3-carbamoyl-1-{[(1S,2S)-1-carbamoyl-2-hydroxypropyl]carbamoyl}propyl]carbamoyl}-4-hydroxypyrrolidin-1-yl]-4-methyl-1-oxopentan-2-yl]carbamoyl}-2-acetamidoethyl]phenoxyphosphonic acid] (Ac-[pY]L[Hyp]Q[Thr(3ξ)]-NH2)",484 nM
–,"CC(C)C[C@H](NC(=O)[C@H](Cc1ccc(OP(=O)(O)O)cc1)NC(=O)OCc1ccccc1)C(=O)N1CCC[C@H]1C(=O)N[C@@H](CCC(N)=O)C(=O)N[C@H](C(N)=O)C(C)O (stereo partly drawn) [4-[(2S)-2-{[(benzyloxy)carbonyl]amino}-2-{[(2S)-1-[(2S)-2-{[(1S)-3-carbamoyl-1-{[(1S,2S)-1-carbamoyl-2-hydroxypropyl]carbamoyl}propyl]carbamoyl}pyrrolidin-1-yl]-4-methyl-1-oxopentan-2-yl]carbamoyl}ethyl]phenoxyphosphonic acid] (Cbz-[pY]LPQ[Thr(3ξ)]-NH2)",750 nM
–,"CC(=O)N[C@@H](Cc1ccc(OP(=O)(O)O)cc1)C(=O)N[C@@H](CC(C)C)C(=O)N1CCC[C@H](C(=O)N[C@@H](CCC(N)=O)C(=O)N[C@H](C(N)=O)C(C)O)C1 (stereo partly drawn) [23, Ac-pTyr-Leu-Nip-Gln-Thr-NH2-2] (Ac-[pY]L[X2]Q[Thr(3ξ)]-NH2)",38600 nM and 33100 nM

Structure (SMILES),IC50 [nM],"IC50 (pH 7.5, 22 °C)"
CC(=O)N[C@@H](Cc1ccc(OP(=O)(O)O)cc1)C(=O)N[C@@H](CC(C)C)C(=O)N1CCC[C@H]1C(=O)N[C@@H](CCC(N)=O)C(=O)O [(2S)-4-carbamoyl-2-{[(2S)-1-[(2S)-2-[(2S)-2-acetamido-3-[4-(phosphonooxy)phenyl]propanamido]-4-methylpentanoyl]pyrrolidin-2-yl]formamido}butanoic acid] (Ac-[pY]LPQ-OH),748,–
